Target: T1, SirT1 (Homo sapiens, UniProt Q96EB6)
T1 sequence (Q96EB6 1-747): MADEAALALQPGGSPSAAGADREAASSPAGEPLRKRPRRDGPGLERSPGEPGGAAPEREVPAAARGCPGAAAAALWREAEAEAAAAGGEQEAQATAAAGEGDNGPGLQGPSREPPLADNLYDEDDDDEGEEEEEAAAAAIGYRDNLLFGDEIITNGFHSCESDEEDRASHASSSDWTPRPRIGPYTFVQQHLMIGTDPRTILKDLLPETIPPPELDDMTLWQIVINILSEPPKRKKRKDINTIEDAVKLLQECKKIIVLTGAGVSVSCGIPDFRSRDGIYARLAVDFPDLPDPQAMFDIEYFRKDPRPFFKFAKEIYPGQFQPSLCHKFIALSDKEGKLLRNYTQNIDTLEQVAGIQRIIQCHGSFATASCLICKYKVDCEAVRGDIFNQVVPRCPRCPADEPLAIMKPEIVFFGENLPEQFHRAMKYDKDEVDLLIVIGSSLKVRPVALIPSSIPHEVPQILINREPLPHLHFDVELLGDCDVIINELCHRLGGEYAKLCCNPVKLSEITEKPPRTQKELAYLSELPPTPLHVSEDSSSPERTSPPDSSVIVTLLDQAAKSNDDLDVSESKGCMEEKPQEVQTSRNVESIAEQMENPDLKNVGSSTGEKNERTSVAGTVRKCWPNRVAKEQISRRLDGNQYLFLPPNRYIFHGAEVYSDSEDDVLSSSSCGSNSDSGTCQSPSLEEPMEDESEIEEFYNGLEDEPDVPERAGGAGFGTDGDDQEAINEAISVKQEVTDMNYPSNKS
Assay: SirT1 p53-382 enzymatic deacetylation assay (fluorogenic Fluor-de-Lys principle)
Type: biochemical
From the text: An exemplary assay method includes a 1536 well format of the SirT1 enzymatic assay that is based on the commercial “Fluor-de-Lys” assay principle by Biomol, which is fluorogenic (www.biomol.com/store/Product_Data_PDFs/ak500.pdf). In this assay, deacetylation of the e-amino function of a lysyl residue is coupled to a fluorogenic “development step that is dependent on the unblocked e-amino functionality and generates fluorescent aminomethylcoumarin. Fluorescence can be read on a commercial macroscopic reader.

IC50 | Compound
< 1 µM | NC(=O)C1CCc2c1[nH]c1ccc(Cl)cc21 (centres unmarked) [Compound 1, 7-Chloro-1,2,3,4-tetrahydro-cyclopenta[b]indole-3-carboxylic acid amide]
> 10 µM | NC(=O)C1Cc2c([nH]c3ccccc23)CN1 (centres unmarked) [Compound 2, 2,3,4,9-Tetrahydro-1H-b-carboline-3-carboxylic acid amide]
1 to 10 µM | NC(=O)C1CCc2c([nH]c3ccc(Br)cc23)C1 (centres unmarked) [Compound 3, 6-Bromo-2,3,4,9-tetrahydro-1H-carbazole-2-carboxylic acid amide]
> 10 µM | NC(=O)C1CCc2c([nH]c3ccc(Cl)cc23)C1 (centres unmarked) [Compound 9, 6-Chloro-2,3,4,9-tetrahydro-1H-carbazole-2-carboxylic acid amide]
1 to 10 µM | NC(=O)C1CCc2c1[nH]c1ccccc21 (centres unmarked) [Compound 10, 1,2,3,4-Tetrahydro-cyclopenta[b]indole-3-carboxylic acid amide]
1 to 10 µM | O=C(Nc1ccc(Cl)cn1)C1CCCc2c1[nH]c1ccc(Cl)cc21 (centres unmarked) [Compound 11, 6-Chloro-2,3,4,9-tetrahydro-1H-carbazole-1-carboxylic acid (5-chloro-pyridin-2-yl)-amide]
> 10 µM | Cc1ccc2[nH]c3c(c2c1)CCCC3(C)C(N)=O (centres unmarked) [Compound 12, 1,6-Dimethyl-2,3,4,9-tetrahydro-1H-carbazole-1-carboxylic acid amide]
> 10 µM | NC(=O)C1CCc2c([nH]c3ccc(OC(F)(F)F)cc23)C1 (centres unmarked) [Compound 13, 6-Trifluoromethoxy-2,3,4,9-tetrahydro-1H-carbazole-2-carboxylic acid amide]

— patent publication US20050256181A1, “Treating a viral disorder” (ELIXIR PHARMACEUTICALS, INC., priority 2004, published 2005)
